According to US10703748B2, “Diazanaphthalen-3-yl carboxamides and preparation and use thereof” (Samumed, LLC, priority 2017, dated 2020):

Tests used:
DYRK1A kinase = DYRK1A kinase (Homo sapiens, UniProt Q13627); test: DYRK1A kinase activity (Ser/Thr 18 peptide Z-lyte FRET assay); assay type: biochemical; settings: recombinant DYRK1A, 30 μM ATP, one hour at room temperature;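 further: kinase activity read as coumarin/fluorescein emission ratio after development step, with unphosphorylated and phosphorylated peptide forms setting 0% and 100% controls, values from dose-response curves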
GSK3β kinase = GSK3β kinase (Homo sapiens, UniProt P49841); test: GSK3β kinase activity (Ser/Thr 09 peptide Z-lyte FRET assay); assay type: biochemical; settings: recombinant kinase, 46 μM ATP, one hour at room temperature; read-out: EC50
Procedure: Each compound is dissolved in DMSO as a 10 mM stock and used to prepare compound source plates. Serial dilution (1:3, 11-point dose-response curves from 10 μM to 0.0003 μM) and compound transfer was performed using the ECHO 550 (Labcyte, Sunnyvale, Calif.) into 1536-well black-walled round bottom plates (Corning).
This is a non-radioactive assay using fluorescence resonance energy transfer (FRET) between coumarin and fluorescein to detect kinase activity which is represented as ratio of coumarin emission/fluorescein emission.
The mixture is allowed to incubate with the representative compounds for one hour at room temperature. All reactions were performed in duplicate. Unphosphorylated (“0% Control”) and phosphorylated (“100% control”) forms of Ser/Thr 18 serve as control reactions.
After incubation, diluted Development Buffer is added to the reaction and allowed to further incubate for one hour at room temperature.
Dose-response curves are generated and inhibitory concentration (IC50) values are calculated using non-linear regression curve fit in the Dotmatics' Studies Software (Bishops Stortford, UK).

[1] = tested on: secreted cytokines TNFα, IL-6 and KC-GRO; test: Secreted cytokines in Lipopolysaccharide-stimulated BV-2 cells (Table 9 does not say which cytokine); assay type: cell-based, mouse; settings: Mus musculus, BV-2, 5 h; read-out: EC50
[2] = tested on: SW480 colon carcinoma cells; test: Cell viability assay (CellTiter-Glo); settings: Homo sapiens; for EC50: SW480, 96 h; for inhibition at 10 µM: SW480, read-out: percent inhibition at 10 μM
[3] = tested on: Wnt-responsive Sp5-Luc reporter in SW480 colon carcinoma cells; test: Screening assay for Wnt activity (Sp5-Luc reporter gene assay); settings: Homo sapiens; for EC50: SW480; for inhibition at 10 µM: SW480, read-out: percent inhibition at 10 μM
IL-6 = IL-6 inhibition in LPS-stimulated human peripheral blood mononuclear cells (HTRF); settings: Homo sapiens, PBMC; for EC50: 22 h; for inhibition at 10 µM: read-out: percentage in parentheses after EC50 >10
[4] = tested on: α-smooth muscle actin (aSMA) positive LL29 cells; test: Inhibition of the fibrotic process: αSMA staining in TGF-β1 treated LL29 fibroblasts from IPF patients; settings: Homo sapiens, Fibroblast; for EC50: 96 h; for inhibition at 10 µM: read-out: percentage in parentheses after EC50 >10

Sequence of GSK3β kinase (P49841 whole entry): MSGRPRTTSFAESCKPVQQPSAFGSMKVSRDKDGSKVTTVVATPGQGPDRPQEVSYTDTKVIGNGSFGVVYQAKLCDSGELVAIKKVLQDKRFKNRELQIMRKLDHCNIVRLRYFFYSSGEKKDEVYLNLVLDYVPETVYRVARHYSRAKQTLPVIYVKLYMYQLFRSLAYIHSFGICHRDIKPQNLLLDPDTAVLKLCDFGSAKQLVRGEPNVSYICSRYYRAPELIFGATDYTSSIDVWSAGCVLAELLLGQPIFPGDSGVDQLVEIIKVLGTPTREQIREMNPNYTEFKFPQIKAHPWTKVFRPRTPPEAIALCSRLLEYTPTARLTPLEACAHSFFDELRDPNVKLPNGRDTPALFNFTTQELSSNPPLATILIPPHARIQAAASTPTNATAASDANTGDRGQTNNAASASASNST

## CC(C)n1cc(C(=O)Nc2cc3cc(-c4cncc(NC5CCN(C)CC5)n4)cnc3cn2)cn1 [Compound 3627, 1-Isopropyl-N-(3-(6-((1-methylpiperidin-4-yl)amino)pyrazin-2-yl)-1,7-naphthyridin-6-yl)-1H-pyrazole-4-carboxamide]
DYRK1A kinase
  EC50: 0.007 µM
GSK3β kinase
  EC50: > 10 µM
[1]
  EC50: 0.708 µM
[2]
  EC50: 3.42 µM
[3]
  EC50: 1.68 µM
IL-6
  EC50: > 10 µM
  inhibition at 10 µM: 10.6%
[4]
  EC50: > 10 µM
  inhibition at 10 µM: 33.4%

## CN1CCN(c2cc(C(=O)Nc3cc4cc(-c5cnn(C)c5)ncc4cn3)ccn2)CC1 [Compound 3774, N-(6-(1-Methyl-1H-pyrazol-4-yl)-2,7-naphthyridin-3-yl)-2-(4-methylpiperazin-1-yl)isonicotinamide]
DYRK1A kinase
  EC50: 0.01 µM
GSK3β kinase
  EC50: 0.397 µM
[1]
  EC50: 0.972 µM
[2]
  EC50: 9.64 µM
[3]
  EC50: > 10 µM
  inhibition at 10 µM: 54.7%
IL-6
  EC50: > 10 µM
  inhibition at 10 µM: 10.8%
[4]
  EC50: 5.86 µM

## CN1CCN(c2ccc(C(=O)Nc3cc4cc(-c5cnn(C)c5)ncc4cn3)cn2)CC1 [Compound 3778, N-(6-(1-Methyl-1H-pyrazol-4-yl)-2,7-naphthyridin-3-yl)-6-(4-methylpiperazin-1-yl)nicotinamide]
DYRK1A kinase
  EC50: 0.004 µM
GSK3β kinase
  EC50: 0.187 µM
[1]
  EC50: 0.72 µM
[2]
  EC50: 7.72 µM
[3]
  EC50: 3.97 µM
IL-6
  EC50: > 10 µM
  inhibition at 10 µM: 4.2%
[4]
  EC50: 0.694 µM

## CN1CCC(Nc2cncc(C(=O)Nc3cc4cc(-c5cnn(C)c5)ncc4cn3)c2)CC1 [Compound 3783, N-(6-(1-Methyl-1H-pyrazol-4-yl)-2,7-naphthyridin-3-yl)-5-((1-methylpiperidin-4-yl)amino)nicotinamide]
DYRK1A kinase
  EC50: 0.004 µM
GSK3β kinase
  EC50: 2.34 µM
[1]
  EC50: 5.3 µM
[2]
  EC50: 1.97 µM
[3]
  EC50: 1.08 µM
IL-6
  EC50: > 10 µM
  inhibition at 10 µM: 1.7%
[4]
  EC50: 2.1 µM

## CN(C)CCNc1cc(C(=O)Nc2cc3cc(-c4cnn(C)c4)ncc3cn2)ccn1 [Compound 3791, 2-((2-(Dimethylamino)ethyl)amino)-N-(6-(1-methyl-1H-pyrazol-4-yl)-2,7-naphthyridin-3-yl)isonicotinamide]
DYRK1A kinase
  EC50: 0.01 µM
GSK3β kinase
  EC50: 1.35 µM
[1]
  EC50: 3.9 µM
[2]
  EC50: 3.42 µM
[3]
  EC50: 0.482 µM
IL-6
  EC50: > 10 µM
  inhibition at 10 µM: 0%
[4]
  EC50: 4.95 µM

## CN(C)Cc1ccc(C(=O)Nc2cc3cc(-c4cnn(C)c4)ncc3cn2)cc1 [Compound 3797, 4-((Dimethylamino)methyl)-N-(6-(1-methyl-1H-pyrazol-4-yl)-2,7-naphthyridin-3-yl)benzamide]
DYRK1A kinase
  EC50: 0.008 µM
GSK3β kinase
  EC50: 0.409 µM
[1]
  EC50: 0.054 µM
[2]
  EC50: 7.02 µM
[3]
  EC50: 0.427 µM
IL-6
  EC50: > 10 µM
  inhibition at 10 µM: 7%
[4]
  EC50: 2.7 µM

## CN1CCc2ccc(C(=O)Nc3cc4cc(-c5cnn(C)c5)ncc4cn3)cc2C1 [Compound 3829, 2-Methyl-N-(6-(1-methyl-1H-pyrazol-4-yl)-2,7-naphthyridin-3-yl)-1,2,3,4-tetrahydroisoquinoline-7-carboxamide]
DYRK1A kinase
  EC50: 0.01 µM
GSK3β kinase
  EC50: 0.763 µM
[1]
  EC50: 0.533 µM
[2]
  EC50: 9.32 µM
[3]
  EC50: 0.994 µM
IL-6
  EC50: > 10 µM
  inhibition at 10 µM: 5.3%
[4]
  EC50: 0.759 µM

## Cn1cc(-c2cc3cc(NC(=O)c4ccc5ccoc5c4)ncc3cn2)cn1 [Compound 3836, N-(6-(1-Methyl-1H-pyrazol-4-yl)-2,7-naphthyridin-3-yl)benzofuran-6-carboxamide]
DYRK1A kinase
  EC50: 0.005 µM
GSK3β kinase
  EC50: 1.47 µM
[1]
  EC50: 1 µM
[2]
  EC50: > 10 µM
  inhibition at 10 µM: 33.9%
[3]
  EC50: 0.22 µM
IL-6
  EC50: > 10 µM
  inhibition at 10 µM: 1.4%
[4]
  EC50: > 10 µM
  inhibition at 10 µM: 10%

## Cn1cc(-c2cc3cc(NC(=O)c4ccc5nccnc5c4)ncc3cn2)cn1 [Compound 3843, N-(6-(1-Methyl-1H-pyrazol-4-yl)-2,7-naphthyridin-3-yl)quinoxaline-6-carboxamide]
DYRK1A kinase
  EC50: 0.006 µM
GSK3β kinase
  EC50: 1.16 µM
[1]
  EC50: ≥ 10 µM
[2]
  EC50: > 10 µM
  inhibition at 10 µM: 14%
[3]
  EC50: > 10 µM
  inhibition at 10 µM: 25%
IL-6
  EC50: > 10 µM
  inhibition at 10 µM: 6.8%
[4]
  EC50: 1.28 µM

## CN1CCC(n2cc(C(=O)Nc3cc4cc(-c5cnn(C)c5)ncc4cn3)cn2)CC1 [Compound 3856, N-(6-(1-Methyl-1H-pyrazol-4-yl)-2,7-naphthyridin-3-yl)-1-(1-methylpiperidin-4-yl)-1H-pyrazole-4-carboxamide]
DYRK1A kinase
  EC50: 0.01 µM
GSK3β kinase
  EC50: 1.75 µM
[1]
  EC50: 0.194 µM
[2]
  EC50: 0.446 µM
[3]
  EC50: 0.367 µM
IL-6
  EC50: 3.99 µM
[4]
  EC50: > 10 µM
  inhibition at 10 µM: 17.5%

## CC(C)OC(=O)N1CCC(n2cc(C(=O)Nc3cc4cc(-c5cnn(C)c5)ncc4cn3)cn2)CC1 [Compound 3861, Isopropyl 4-(4-((6-(1-methyl-1H-pyrazol-4-yl)-2,7-naphthyridin-3-yl)carbamoyl)-1H-pyrazol-1-yl)piperidine-1-carboxylate]
DYRK1A kinase
  EC50: 0.005 µM
GSK3β kinase
  EC50: 1.06 µM
[1]
  EC50: 0.343 µM
[2]
  EC50: 0.933 µM
[3]
  EC50: 0.824 µM
IL-6
  EC50: > 10 µM
  inhibition at 10 µM: 5.8%
[4]
  EC50: 0.597 µM

## Cc1ncc(C(=O)Nc2cc3cc(-c4cnc(C)n4C)ncc3cn2)s1 [Compound 4074, N-(6-(1,2-Dimethyl-1H-imidazol-5-yl)-2,7-naphthyridin-3-yl)-2-methylthiazole-5-carboxamide]
DYRK1A kinase
  EC50: 0.007 µM
GSK3β kinase
  EC50: 0.416 µM
[1]
  EC50: 0.3 µM
[2]
  EC50: 2.31 µM
[3]
  EC50: 2.69 µM
IL-6
  EC50: > 10 µM
  inhibition at 10 µM: 14%
[4]
  EC50: 3.19 µM

## Cn1cncc1-c1cc2cc(NC(=O)c3ccc(F)cc3)ncc2cn1 [Compound 4075, 4-Fluoro-N-(6-(1-methyl-1H-imidazol-5-yl)-2,7-naphthyridin-3-yl) benzamide]
DYRK1A kinase
  EC50: 0.008 µM
GSK3β kinase
  EC50: 0.966 µM
[1]
  EC50: ≥ 10 µM
[2]
  EC50: > 10 µM
  inhibition at 10 µM: 35.4%
[3]
  EC50: 5.6 µM
IL-6
  EC50: > 10 µM
  inhibition at 10 µM: 8.1%
[4]
  EC50: > 10 µM
  inhibition at 10 µM: 39.2%

## Cn1cncc1-c1cc2cc(NC(=O)c3cccc(CN4CCCC4)c3)ncc2cn1 [Compound 4077, N-(6-(1-Methyl-1H-imidazol-5-yl)-2,7-naphthyridin-3-yl)-3-(pyrrolidin-1-ylmethyl)benzamide]
DYRK1A kinase
  EC50: 0.007 µM
GSK3β kinase
  EC50: 2.28 µM
[1]
  EC50: 2.4 µM
[2]
  EC50: 2.79 µM
[3]
  EC50: 0.2 µM
IL-6
  EC50: > 10 µM
  inhibition at 10 µM: 3.6%
[4]
  EC50: 1.02 µM

## CN1CCC(Oc2cccc(C(=O)Nc3cc4cc(-c5cnco5)ncc4cn3)c2)CC1 [Compound 4218, 3-((1-Methylpiperidin-4-yl)oxy)-N-(6-(oxazol-5-yl)-2,7-naphthyridin-3-yl) benzamide]
DYRK1A kinase
  EC50: 0.014 µM
GSK3β kinase
  EC50: 7.4 µM
[1]
  EC50: 5.1 µM
[2]
  EC50: 5.96 µM
[3]
  EC50: > 10 µM
  inhibition at 10 µM: 24.9%
IL-6
  EC50: > 10 µM
  inhibition at 10 µM: 3.7%
[4]
  EC50: 2.98 µM
